Data reported in patent publication US20160297833A1, “THIENOPYRIMIDINES AS MKNK1 AND MKNK2 INHIBITORS” (BAYER PHARMA AKTIENGESELLSCHAFT, priority 2013, published 2016).

Molecular target: T1, human full-length MKNK1 (Homo sapiens, UniProt Q9BUB5, T385D)
T1 construct: GST (N); purchased Carna Biosciences 02-145; host or cells: insect cells (baculovirus expression system)
Assay: MKNK1 kinase high ATP assay (TR-FRET)
Assay type: biochemical
Conditions: Table 1; MKNK1 kinase high ATP assay, 2 mM ATP; read-out: MKNK1 IC50
In short: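 Full-length human MKNK1 (T385D) preincubated 15 min at 22 °C with compound in HEPES pH 7.5/MgCl2/DTT buffer; reaction with 2 mM ATP (final) and 0.06 μM biotinylated peptide (final), 30 min at 22 °C.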

T1 sequence (Q9BUB5 1-424 isoform Q9BUB5-2 T344D): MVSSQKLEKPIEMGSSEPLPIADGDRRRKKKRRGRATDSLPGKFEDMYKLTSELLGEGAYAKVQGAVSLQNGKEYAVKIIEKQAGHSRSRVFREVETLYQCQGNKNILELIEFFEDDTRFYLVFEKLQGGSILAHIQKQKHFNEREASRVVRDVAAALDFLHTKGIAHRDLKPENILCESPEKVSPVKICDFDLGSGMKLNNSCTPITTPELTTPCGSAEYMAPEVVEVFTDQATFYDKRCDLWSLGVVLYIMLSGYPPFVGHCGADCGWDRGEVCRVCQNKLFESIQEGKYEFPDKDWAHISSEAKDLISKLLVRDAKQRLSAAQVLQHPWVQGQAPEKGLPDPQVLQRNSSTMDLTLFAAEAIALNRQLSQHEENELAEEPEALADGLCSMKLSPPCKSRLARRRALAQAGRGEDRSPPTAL

SMILES	IC50 [nM]
CC(C)Oc1cc2[nH]ncc2cc1Nc1ncnc2sc3c(c12)CC[C@H](C(=O)N1CC(N(C)C)C1)C3 [Example 219, [3-(Dimethylamino)azetidin-1-yl][(7S)-4-{[6-(propan-2-yloxy)-1H-indazol-5-yl]amino}-5,6,7,8-tetrahydro[1]benzothieno[2,3-d]pyrimidin-7-yl]methanone]	0.2
O=C([C@H]1CCc2c(sc3ncnc(Nc4cc5cn[nH]c5cc4F)c23)C1)N1CC2CC2C1 (stereo partly drawn) [Example 220, 3-Azabicyclo[3.1.0]hex-3-yl{(7S)-4-[(6-fluoro-1H-indazol-5-yl)amino]-5,6,7,8-tetrahydro[1]benzothieno[2,3-d]pyrimidin-7-yl}methanone]	4.3
C[C@@H]1CN(C(=O)[C@H]2CCc3c(sc4ncnc(Nc5cc6cn[nH]c6cc5F)c34)C2)C[C@H](C)O1 [Example 221, [(2R,6S)-2,6-Dimethylmorpholin-4-yl]{(7S)-4-[(6-fluoro-1H-indazol-5-yl)amino]-5,6,7,8-tetrahydro[1]benzothieno[2,3-d]pyrimidin-7-yl}methanone]	3.8
COCCN(C)C(=O)[C@H]1CCc2c(sc3ncnc(Nc4cc5cn[nH]c5cc4F)c23)C1 [Example 222, (7S)-4-[(6-Fluoro-1H-indazol-5-yl)amino]-N-(2-methoxyethyl)-N-methyl-5,6,7,8-tetrahydro[1]benzothieno[2,3-d]pyrimidine-7-carboxamide]	3.2
C[C@@H]1COCCN1C(=O)[C@H]1CCc2c(sc3ncnc(Nc4cc5cn[nH]c5cc4F)c23)C1 [Example 223, {(7S)-4-[(6-Fluoro-1H-indazol-5-yl)amino]-5,6,7,8-tetrahydro[1]benzothieno[2,3-d]pyrimidin-7-yl}[(3R)-3-methylmorpholin-4-yl]methanone]	8.4

Further lines, results first:

IC50 [nM]	SMILES
3.7	C[C@@H]1CN(C(=O)[C@H]2CCc3c(sc4ncnc(Nc5cc6cn[nH]c6cc5F)c34)C2)C[C@@H](C)O1 [Example 224, [(2R,6R)-2,6-Dimethylmorpholin-4-yl]{(7S)-4-[(6-fluoro-1H-indazol-5-yl)amino]-5,6,7,8-tetrahydro[1]benzothieno[2,3-d]pyrimidin-7-yl}methanone]
8.7	C[C@H]1CN(C(=O)[C@H]2CCc3c(sc4ncnc(Nc5cc6cn[nH]c6cc5F)c34)C2)C[C@H](C)O1 [Example 225, [(2S,6S)-2,6-Dimethylmorpholin-4-yl]{(7S)-4-[(6-fluoro-1H-indazol-5-yl)amino]-5,6,7,8-tetrahydro[1]benzothieno[2,3-d]pyrimidin-7-yl}methanone]
7.8	O=C([C@H]1CCc2c(sc3ncnc(Nc4cc5cn[nH]c5cc4F)c23)C1)N1CCOCC1 [Example 226, {(7S)-4-[(6-Fluoro-1H-indazol-5-yl)amino]-5,6,7,8-tetrahydro[1]benzothieno[2,3-d]pyrimidin-7-yl}(morpholin-4-yl)methanone]
7	C[C@H]1COCCN1C(=O)[C@H]1CCc2c(sc3ncnc(Nc4cc5cn[nH]c5cc4F)c23)C1 [Example 227, {(7S)-4-[(6-Fluoro-1H-indazol-5-yl)amino]-5,6,7,8-tetrahydro[1]benzothieno[2,3-d]pyrimidin-7-yl}[(3S)-3-methylmorpholin-4-yl]methanone]
6.1	CN(C)C(=O)[C@H]1CCc2c(sc3ncnc(Nc4cc5cn[nH]c5cc4F)c23)C1 [Example 228, (7S)-4-[(6-Fluoro-1H-indazol-5-yl)amino]-N,N-dimethyl-5,6,7,8-tetrahydro[1]benzothieno[2,3-d]pyrimidine-7-carboxamide]
4.3	C[C@H]1CN(C(=O)[C@H]2CCc3c(sc4ncnc(Nc5cc6cn[nH]c6cc5Cl)c34)C2)C[C@H](C)O1 [Example 229, {(7S)-4-[(6-Chloro-1H-indazol-5-yl)amino]-5,6,7,8-tetrahydro[1]benzothieno[2,3-d]pyrimidin-7-yl}[(2S,6S)-2,6-dimethylmorpholin-4-yl]methanone]
